# Assay results taken from patent US8637683B2, “Macrocyclic lactone derivatives for the treatment of cancer” (Piramal Enterprises Limited, priority 2009, dated 2014).
# What was measured:
# Assay type in all cases: cell-based, human
# UXF 1138L = assay: Monolayer assay (modified propidium iodide), UXF 1138L; settings: Uterus, 4 days of treatment
# Text: (§1) Oncotest GmbH, Germany's proprietary tumor cell line panel comprises 40 cell lines. These cell lines were derived from 15 different tumor histotypes, each represented by 1 to 6 different cell lines. Cell lines were established from cancer of the bladder (3), colon (4), head and neck (1), lung (6), breast (3), pancreas (3), prostate (4), ovary (2), kidney (3), liver (1), stomach (1) and the uteri body (1), as well as from melanoma (3), sarcoma (2) and pleuramesothelioma (3). Out of these 40 cell lines, 24 cell lines were established at Oncotest, from patient-derived tumor xenografts. […]
# (§2) Stock solutions of the test compounds (330 μg/mL in DMSO) were prepared and stored in small aliquots (200 μL) at −20° C. […] Each concentration was evaluated in triplicate. […]
# (§3) Cells were plated in 96-well flat-bottom microtiter plates at a cell density of 4,000 to 10,000 cells/well. […] To measure the viable cell number, the remaining adherent cells were killed and permeabilized by repeated freezing and thawing and PI fluorescence was measured using the Cytofluor 4000 microplate reader (excitation λ=530 nm, emission λ=620 nm), which was a measure for the number of cells which survived treatment. […] IC-values were calculated based on the principle of linear two-point curve fit. […]
# PAXF 1657L = assay: Monolayer assay (modified propidium iodide), PAXF 1657L; settings: Pancreas, 4 days of treatment
# Text: as §1, §2, §3
# PC3M = assay: Monolayer assay (modified propidium iodide), PC3M; settings: Prostate, 4 days of treatment
# Text: as §1, §2, §3
# LNCAP = assay: Monolayer assay (modified propidium iodide), LNCAP; settings: Prostate, 4 days of treatment
# Text: as §1, §2, §3
# OVCAR3 = assay: Monolayer assay (modified propidium iodide), OVCAR3; settings: OVCAR3, Ovarian, 4 days of treatment
# Text: as §1, §2, §3
# MAXF 401NL = assay: Monolayer assay (modified propidium iodide), MAXF 401NL; settings: Mammary, 4 days of treatment
# Text: as §1, §2, §3
compound,measurement,setting,value
"C/C=C/C(O)C(C)/C=C/C(=N\O)C(C)C(O)C(C)C1OC(=O)/C(OC)=C/C(C)=C/C(C)C(O)C(CC)C(O)C(C)C/C(C)=C/C=C/C1OC (stereo not drawn) [Example 7, (3Z,5E,13E,15E)-18-((5Z,6E,10E)-3,9-Dihydroxy-5-(hydroxymino)-4,8-dimethyldodeca-6,10-dien-2-yl)-9-ethyl-8,10-dihydroxy-3,17-dimethoxy-5,7,11,13-tetramethyl oxacyclooctadeca-3,5,13,15-tetraen-2-one]",IC50,"UXF 1138L; Homo sapiens, 96 h",5 ng/mL
same,IC70,UXF 1138L,11.0 ng/mL
same,IC50,"PAXF 1657L; Homo sapiens, 96 h",8 ng/mL
same,IC70,PAXF 1657L,>1000 ng/mL
same,IC50,"PC3M; Homo sapiens, PC-3M, 96 h",0.4 ng/mL
same,IC70,PC3M,3.0 ng/mL
same,IC50,"LNCAP; Homo sapiens, 96 h",3 ng/mL
same,IC70,LNCAP,15.0 ng/mL
same,IC50,"OVCAR3; Homo sapiens, OVCAR-3, 96 h",0.4 ng/mL
same,IC70,OVCAR3,>1000 ng/mL
same,IC50,"MAXF 401NL; Homo sapiens, 96 h",3 ng/mL
same,IC70,MAXF 401NL,8.0 ng/mL
